Data published in patent EP2889299A1, “Fluorescent red emitting functionalizable pH probes” (Paris Sciences et Lettres - Quartier Latin, priority 2013, dated 2015).
Like-named read-outs stand apart in the source and are kept apart here.

Assays:
[1] = pKa calculation from fluorescence intensity versus pH (Hill equation fit); type: physicochemical; details: fluorescence intensity at λem,max versus pH, 25°C
Procedure: pKa calculations. pKa values were calculated by plotting the fluorescence intensity at λem.,max versus the pH. The data was fit to the Hill Equation (equation 4) and the pKa taken as x1/2 as per the Hill equation. base + ((max-base))/(1 + (((x1/2)/(x)))^rate) [formula] • base = y value at minimum x-value • max = y value at maximum x-value • rate = rise rate of the curve • x1/2 = x value at which y = (base + max)/2.
The dependence of fluorescence enhancement on pH was determined for probes I-1, I-3 and I-4. Results are represented in figure 4A, 4B, and 4C respectively. Curve fitting was based on a modified Hill equation from which pKa values were calculated.

[2] = Absorption spectra and molar extinction coefficient (Beer Lambert law); type: physicochemical; details: for λabs: maximum absorption wavelength
Procedure: (§1) All the solvents were of analytical grade. Chemicals were purchased from commercial sources. The salts used in stock solutions of metal ions were CaCl2·2H2O, CuCl2·2H2O, FeCl3·6H2O, MgCl2·6H2O, MnCl2·4H2O, ZnBr2. ^1H-NMR and ^13C-NMR were measured on a Bruker avance III-300 MHz spectrometer with chemical shifts reported in ppm (TMS as internal standard). Mass spectra were measured on a Focus GC / DSQ II spectrometer (ThermoScientific) for IC and an API 3000 spectrometer (Applied Biosystems, PE Sciex) for ES. All pH measurements were made with a Mettler Toledo pH-Meter. Fluorescence spectra were recorded on a JASCO FP-8300 spectrofluorometer. Absorption spectra were determined on a VARIAN CARY 300 Bio UV-Visible spectrophotometer. All measurements were done at a set temperature of 25°C. The purity of the dyes were checked by RP-HPLC C-18, eluant: ACN 0.1% TFA/Water 0.1 % TFA, method: 20/80 to 100/0 within 20 min. then 100/0 for 10 min. detection at λabs= 254 nm.
Molar extinction coefficient calculations. Extinction coefficients (ε) were calculated using the Beer Lambert law (equation 3) plotting optical density/absorption versus concentration for the pH probes. The gradient of the plot is equal to ε. A = εc1 [formula] • A = optical density/absorption • ε = extinction coefficient = gradient of the plot • c = concentration • 1= optical path length (1 cm)
The dependence of absorption on pH for probe I-1 was determined in a MOPS buffered aqueous solution. Results are represented in figure 2.

[3] = Fluorescence spectra, quantum yield and dynamic range; type: physicochemical; details: for λem: excitation at 535 nm, maximum emission wavelength; for Φ: MOPS 30 mM, KCl 100 mM, reference Rhodamine 101, excitation 535 nm; for Dynamic Range: maximal value of (I-Imin)/Imin; for ΦON/ ΦOFF: ratio of quantum yields at pH 4 and pH 10
Procedure: as §1
Dynamic range. The term dynamic range refers to the maximal value of equation 1 where I is the observed fluorescence intensity and Imin is the minimum fluorescence intensity observed for that probe. The larger the dynamic range the better as it indicates good differentiation between "on" and "off' states. Dynamic Range = ((I-Imin))/(Imin) [formula]
Quantum yield calculations. The fluorescence quantum yields (Φ) were calculated from the gradient of integrated fluorescence intensity (545 to 700 nm) versus optical density. Rhodamine 101 (Φ = 1.0 in absolute ethanol) was used as a reference standard (ref) with the excitation wavelength at 535 nm. Equation 2 was used to determine the Φ values. Φ = Φref (grad.)/(grad.ref).(η^2)/(ηref^2) [formula] • Φ = quantum yield • η = refractive index of the solvent system (η (H2O) = 1.33, ηref (EtOH) = 1.36) grad. = gradient of the curve
ΦON (pH = 4) and ΦOFF (pH = 10) were calculated for each pH probe in MOPS 30 mM, KCl 100 mM.
The dependence of fluorescence intensity on pH for probe I-1 was determined in a MOPS buffered aqueous solution after excitation at 535 nm. Results are represented in figure 3.

F98 cells = assay: Dose response by flow cytometry (probe internalization); type: cell-based, rat; details: F98 cells incubated for two hours
Procedure: Cell calture for flow cytometry, dose response and cellular imaging: F98 and CHO-K1 cell lines (purchased from ATCC) were maintained at 37°C in 5% CO2 in DMEM/F-12 nutrient medium (Invitrogen, Cergy Pontoise, France) supplemented with 2% (v/v) heat-inactivated fetal bovine serum (Invitrogen) and 100 µg/mL streptomycine and 100 units/mL penicillin (Invitrogen).
Fluorescence Activated Cell Sorting Analyses: F98 cells were incubated with various concentrations of pH probes in DMEM/F-12 culture medium without serum at 37 °C for 2h. The cells were washed with PBS to remove excess fluorescent probe and were treated with 0.05% Trypsin-EDTA for 2 min at 37°C to detach the cells from the surface, and centrifuged at 200 g in DMEM/F-12 culture medium before suspension in PBS. Flow cytometry analyses were performed with live cells using an Accuri C6 flow cytometer (BD Biosciences, Le Pont de Claix, France). The data was obtained and analysed using CFlow Sampler (BD Biosciences). Live cells were gated by forward/side scattering for a total of 10,000 events.
Undifferentiated malignant glioma rat cells (F98) were incubated with probe I-1 for two hours at increasing concentrations and the fluorescence intensity measured. Results are represented in figure 7.

[4] = Optical properties of the second (blue) fluorophore; type: physicochemical; details: measured in CH3CN/H2O
From the text: In addition to having the correct absorption and emission wavelengths, the chosen second fluorophore must feature a terminal alkyne to make it "clickable" with the azide-containing pH probe I-1. The acridone 5 was selected, having the following optical properties (measured in CH3CN/H2O): […]

[5] = Fluorescence of the ratiometric dual-fluorophore probe as a function of pH; type: physicochemical
From the text: • Figure 1 is a drawing schematically representing the red-emitting pH probe of the invention. • Figure 2 is a graph representing the dependence of absorption on pH in a MOPS buffered aqueous solution for compound I-1. • Figure 3 is a graph representing the dependence of fluorescence intensity on pH in a MOPS buffered aqueous solution after excitation at 535 nm, for compound I-1. • Figure 4A-4C are graphs representing the dependence of fluorescence enhancement on pH for compounds I-1 (4A), I-3 (4B) and I-4 (4C). • Figure 5 is a graph representing fluorescence intensities of compound I-1 (5 µM) in presence of a range of metal ions in a MOPS buffer (MOPS 30 mM, KCl 100 mM, pH 7.2). The concentration of cations is 10^-3 M. • Figure 6 is a graph representing CCK-8 test results for compound I-1 indicating cytotoxicity. The probe was incubated with Chinese hamster ovary cells (CHO-K1) for 2 hours at 37°C. • Figure 7 is a dose response diagram for F98 cells incubated with pH probe I-1. • Figure 8 is a graph representing the fluorescence spectrum for the dual-fluorophore I-5 (5 µM) measured in an aqueous MOPS buffered solution/MeOH, 91/9. • Figure 9 is a plot of I∼612/I439 versus pH at excitation wavelength 405 nm for compound I-5. I∼612 and I439 are the respective fluorescence intensities of the system at ∼612nm corresponding to the X-rhodamine red-emission and at 439nm corresponding to the acridone blue-emission.
The peak centred at 439 nm corresponding to emission from the acridone fluorophore and the peak centred at 612 nm to that of the X-rhodamine. The blue acridone emission is not dependent on pH while the red X-rhodamine emission is dependent on pH.
In order to visualize the intensity ratio between the two emission signals a plot of I∼612/I439 versus pH was plotted (figure 9). I∼612 and I439 are the respective fluorescence intensities of the system at ∼612 nm corresponding to the X-rhodamine red-emission and at 439 nm corresponding to the acridone blue-emission.

CHO-K1 cells = assay: Cytotoxicity, CCK-8 cell counting kit; type: cell-based, Chinese hamster; details: 1% Triton; positive control
Procedure: Cytotoxicity: CHO-K1 cells (20,000 per well) were seeded in 96 multiple well plates for 24 h before the experiment. Cells (40,000 per well) were incubated with the fluorescent compounds in 100 µL DMEM for 2h at 37°C. The incubation medium was replaced by 100µL fresh DMEM containing 10% of cell-counting solution (Dojindo Laboratories) and further incubated for 2h at 37°C. The absorbance was measured at 450 nm (reference at 620 nm) and was directly related to the number of living cells. Experiments were done in triplicate and repeated twice.
To determine cytotoxicity a CCK-8 cell counting kit was used. This can be bought commercially and relies upon the reduction of a highly water-soluble tetrazolium salt (WST-8). This compound is slightly yellow in color, however, upon reduction to its corresponding formazan species it becomes bright orange. The optical density of the absorbance corresponding to the orange formazan species, detected at 450nm, can be measured and correlated to the number of living cells. A decrease in optical density corresponds directly to a decrease in the quantity of formazan molecules indicating fewer living cells due to cell death/cytotoxicity. The reduction of WST-8 is achieved by exploiting the redox reactions of NAD+, a coenzyme found in all living cells. Cellular NAD+ is constantly being reduced to NADH by dehydrogenases as a natural part of a cell's metabolism. […]

[6] = in absolute ethanol; reference standard; cited from earlier work
[7] = 5 µM, aqueous MOPS buffered solution/MeOH, 91/9

| pKa [1] | ε ([2]; OFF, deprotonated form: pH 10) [M⁻¹ cm⁻¹] | λabs ([2]; OFF, deprotonated form: pH 10) [nm] | ε ([2]; ON, protonated form: pH 4) [M⁻¹ cm⁻¹] | λabs ([2]; ON, protonated form: pH 4) [nm] | λem ([3]; OFF, deprotonated form: pH 10) [nm] | Φ ([3]; OFF, pH 10) | Φ ([3]; ON, pH 4) | λem ([3]; ON, protonated form: pH 4) [nm] | Dynamic Range [3] | ΦON/ ΦOFF [3] | Molecule | further results |
| --- | --- | --- | --- | --- | --- | --- | --- | --- | --- | --- | --- | --- |
| 7.64 | 20712 | 574 | 35109 | 580 | 600 | 0.023 | 0.798 | 601 | 98 | 35 | C#CCN1CCN(C(=O)c2cc(C3=c4cc5c6c(c4Oc4c3cc3c7c4CCCN7CCC3)CCC[N+]=6CCC5)ccc2O)CC1 [Compound I-4] | – |
| 3.96 | 26706 | 574 | 26742 | 580 | 596 | 0.009 | 0.254 | 600 | 88 | 28 | [N-]=[N+]=NCCCNC(=O)c1cc(C2=c3cc4c5c(c3Oc3c2cc2c6c3CCCN6CCC2)CCC[N+]=5CCC4)ccc1O [Compound I-1] | absorbs light at ([2]; red region of the spectrum): 580 nm; fluorescence intensity of cells at increasing concentrations of probe (F98 cells): increase of fluorescence with increasing concentration of probe |
| – | – | – | – | – | – | – | – | – | – | – | C#CCCCn1c2ccccc2c(=O)c2ccccc21 | λabs [4]: 408 nm; λem [4]: 425 nm; FWHM ([4]; full width at half maximum): 49 |
| – | – | – | – | – | – | – | – | – | – | – | O=C(NCCCn1cc(CCCn2c3ccccc3c(=O)c3ccccc32)nn1)c1cc(C2=c3cc4c5c(c3Oc3c2cc2c6c3CCCN6CCC2)CCC[N+]=5CCC4)ccc1O [Compound I-5] | emission peak of the X-rhodamine [5, 7]: 612 nm; emission peak of the acridone fluorophore [5, 7]: 439 nm; I∼612/I439 ratio ([5]; excitation wavelength 405 nm, as the system was acidified): four-fold increase |
| – | – | – | – | – | – | – | – | – | – | – | Triton | cell death (CHO-K1 cells): total cell death |
| 7.68 | 49298 | 575 | 72405 | 580 | 602 | 0.016 | 0.640 | 601 | 86 | 40 | C#CCOC(=O)N1CCN(C(=O)c2cc(C3=c4cc5c6c(c4Oc4c3cc3c7c4CCCN7CCC3)CCC[N+]=6CCC5)ccc2O)CC1 [Compound I-3] | – |
| – | – | – | – | – | – | – | – | – | – | – | O=C(O)c1ccccc1C1=c2cc3c4c(c2Oc2c1cc1c5c2CCCN5CCC1)CCC[N+]=4CCC3.[Cl-] [Rhodamine 101] | Φ [6]: 1.0 |
